Test results reported in ChEMBL document CHEMBL3407442, “Synthesis and biological evaluation of α-aryl-α-tetralone derivatives as hepatitis C virus inhibitors” (Eur J Med Chem, 2015).

Key:
[1] = Selectivity index, ratio of CC50 for human Huh7.5 cells to EC50 for HCV genotype 1b infected in human Huh7/Rep-Feo1b replicon cells; parameters: species or system Huh-7
Hepatitis C virus [2] = test: Antiviral activity against HCV genotype 2a infected in human Huh7.5-FGR-JC1-Rluc2A replicon cells assessed as inhibition of viral viral RNA replication at 50 uM incubated for 48 hrs by luciferase reporter gene assay; assay type: functional, Hepacivirus hominis; settings: Huh-7, 48 h
[3] = Selectivity index, ratio of CC50 for human Huh7.5 cells to EC50 for HCV genotype 2a infected in human Huh7.5-FGR-JC1-Rluc2A replicon cells; parameters: species or system Huh-7
Hepatitis C virus [4] = test: Antiviral activity against HCV genotype 2a infected in human Huh7.5-FGR-JC1-Rluc2A replicon cells assessed as inhibition of viral viral RNA replication incubated for 48 hrs by luciferase reporter gene assay; assay type: functional, cell-based, Hepacivirus hominis; settings: Huh-7, 48 h
Hepatitis C virus [5] = test: Antiviral activity against HCV genotype 1b infected in human Huh7/Rep-Feo1b replicon cells assessed as inhibition of viral viral RNA replication incubated for 48 hrs by luciferase reporter gene assay; assay type: functional, cell-based, Hepacivirus hominis; settings: Huh-7, 48 h
Hepatitis C virus [6] = test: Antiviral activity against HCV genotype 1b infected in human Huh7/Rep-Feo1b replicon cells assessed as inhibition of viral viral RNA replication at 50 uM incubated for 48 hrs by luciferase reporter gene assay; assay type: functional, Hepacivirus hominis; settings: Huh-7, 48 h
[7] = Cytotoxicity against human Huh7.5 cells by MTS assay; assay type: cell-based, Huh-7

Structure (SMILES)	Ratio CC50/EC50 [1]	inhibition at 50 µM (Hepatitis C virus [2]) [%]	Ratio CC50/EC50 [3]	EC50 (Hepatitis C virus [4]) [µM]	EC50 (Hepatitis C virus [5]) [µM]	inhibition at 50 µM (Hepatitis C virus [6]) [%]	CC50 [7] [µM]
COc1ccccc1C1CCc2ccccc2C1=O (centres undefined)	2.3	84.4	8.2	14.3	50.1	48.4	117
COc1ccc(C2CCc3ccccc3C2=O)c(OC)c1 (centres undefined)	1.4	83.9	5.7	11	44.3	55.6	63.6
COc1ccc2c(c1)CCC(c1ccccc1OC)C2=O (centres undefined)	14.3	88.8	101.4	1.5	10.6	86.4	152
COc1ccc2c(c1)CCC(c1ccc(OC)cc1OC)C2=O (centres undefined)	<6.6	93.4	<15.3	3.3	7.5	89.5	< 50
COc1ccc2c(c1)C(=O)C(c1ccccc1OC)CC2 (centres undefined)	3.7	91.8	30.8	3.6	29.5	85.4	111
COc1ccc(C2CCc3ccc(OC)cc3C2=O)c(OC)c1 (centres undefined)	<3.5	97.6	<3.3	15	14.3	95.2	< 50
COc1ccccc1C1CCc2c(OC)cccc2C1=O (centres undefined)	>4.1	86.6	>18.5	10.8	48.5	51.7	> 200
COc1ccc(C2CCc3c(OC)cccc3C2=O)c(OC)c1 (centres undefined)	8.2	99.5	32.6	3.2	12.8	96.5	104
COc1cc2c(cc1OC)C(=O)C(c1ccccc1OC)CC2 (centres undefined)	2.9	79.9	26.2	4.8	42.5	60.2	126
COc1ccc(C2CCc3cc(OC)c(OC)cc3C2=O)c(OC)c1 (centres undefined)	> 111	86.8	>46.1	4.3	1.8	89.6	> 200
COc1ccccc1C1CCc2c(OC)ccc(OC)c2C1=O (centres undefined)	>24.9	88.8	>29.5	6.8	8	80.6	> 200
COc1ccc(C2CCc3c(OC)ccc(OC)c3C2=O)c(OC)c1 (centres undefined)	<6	86.2	<2.3	21.5	8.2	73.8	< 50
COc1cccc2c1CCC(c1ccccc1O)C2=O (centres undefined)		86	10.2	10.8		26.1	111
COc1ccccc1C1CCc2c(O)ccc(OC)c2C1=O (centres undefined)		44				41.2	> 200
COc1ccc(O)c2c1C(=O)C(c1ccccc1OCc1ccccc1)CC2 (centres undefined)	<8	98	<11.3	4.4	6.21	99.1	< 50
